Laboratory results from EPA's ToxRefDB 2.

What was measured:
rat [1] = details: Prenatal developmental toxicity study, sprague dawley, Oral, Gavage/Intubation, dose end: 15 GD
rat [2] = details: Combined chronic toxicity/carcinogenicity, fischer, Oral, Water, dose end: 105 week, group: systemic
mouse [3] = details: Sub-acute repeat dose toxicity, b6c3f1, Oral, Water, dose end: 14 day, group: systemic
rat [4] = details: Sub-acute repeat dose toxicity, fischer, Oral, Water, dose end: 14 day, group: systemic
rat [5] = details: Subchronic oral toxicity in rodents, fischer, Water, dose end: 14 week, group: systemic
mouse [6] = details: Subchronic oral toxicity in rodents, b6c3f1, Water, dose end: 13 week
mouse [7] = details: Combined chronic toxicity/carcinogenicity; b6c3f1; Oral; Water; dose end: 105 week; group: systemic; systemic / in life observation / body weight / body weight
rat [8] = details: Prenatal developmental toxicity study, sprague dawley, Dermal, Topical, dose end: 15 GD, group: maternal
rat [9] = details: Sub-acute repeat dose toxicity, sprague dawley, Oral, Gavage/Intubation, dose end: 28 day, group: systemic
mouse [10] = details: Subchronic dermal toxicity, cd1, Topical, dose end: 49 day, group: systemic
rat [11] = details: Subchronic oral toxicity in rodents, sprague dawley, Gavage/Intubation, dose end: 13 week, group: systemic
rat [12] = details: Subchronic oral toxicity in rodents, other, Feed, dose end: 13 week, group: systemic
[13] = group: developmental, systemic / in life observation / body weight / fetal weight
[14] = group: maternal, systemic / in life observation / clinical signs / ataxia + systemic / in life observation / clinical signs / lethargy + systemic / in life …
[15] = systemic / pathology microscopic / kidney / hyperplasia + systemic / pathology microscopic / kidney / nephropathy + systemic / in life …
[16] = systemic / in life observation / body weight / body weight gain + systemic / organ weight / liver / absolute + systemic / organ weight / …
[17] = systemic / clinical chemistry / bile acids / bile acids + systemic / in life observation / body weight / body weight + systemic / in life …
[18] = systemic / in life observation / body weight / body weight + systemic / in life observation / body weight / body weight gain + systemic / …
[19] = group: maternal, reproductive / reproductive performance / estrous cycle / length
[20] = group: systemic, systemic / in life observation / clinical signs / dehydration + systemic / in life observation / clinical signs / feces, discoloration + …
[21] = group: systemic, systemic / in life observation / water consumption / water consumption
[22] = systemic / in life observation / body weight / body weight + systemic / in life observation / clinical signs / [other] + systemic / in life …
[23] = systemic / in life observation / body weight / body weight + systemic / in life observation / clinical signs / red or crusty deposits around…
[24] = systemic / clinical chemistry / phosphorus / phosphorus + systemic / clinical chemistry / bilirubin / total bilirubin + systemic / pathology…
[25] = systemic / pathology gross / uterus / fluid contents
[26] = systemic / in life observation / clinical signs / erythema + systemic / pathology microscopic / skin / edema
[27] = systemic / in life observation / clinical signs / erythema + systemic / pathology microscopic / skin / edema + systemic / in life …
[28] = systemic / organ weight / kidney / relative to body weight + systemic / organ weight / liver / absolute + systemic / organ weight / liver / …
[29] = systemic / hematology / erythrocyte (rbc) count differential / erythrocyte (rbc) + systemic / in life observation / body weight / body …
[30] = systemic / urinalysis / ketones / ketones

## CC(CO)OC(C)CO.CC(O)COCC(C)O (stereo unspecified) [Dipropylene glycol]
Rat [1]; [13]
  LEL: 5000 mg/kg/day
  LOAEL: > 5000 mg/kg/day
  NEL: 2000 mg/kg/day
  NOAEL: ≥ 5000 mg/kg/day
Rat [1]; [14]
  LEL: 2000 mg/kg/day
  LOAEL: > 5000 mg/kg/day
  NEL: 800 mg/kg/day
  NOAEL: ≥ 5000 mg/kg/day
Rat [2]; systemic / pathology microscopic / kidney / hyperplasia + systemic / pathology microscopic / kidney / nephropathy
  LOAEL: 470 mg/kg/day
Rat [2]; [15]
  NEL: 115 mg/kg/day
  NOAEL: 115 mg/kg/day
Rat [2]; systemic / pathology microscopic / kidney / hyperplasia + systemic / pathology microscopic / kidney / nephropathy + systemic / pathology …
  LEL: 470 mg/kg/day
Mouse [3]; systemic / in life observation / body weight / body weight gain
  LOAEL: 10700 mg/kg/day
Mouse [3]; [16]
  LEL: 10700 mg/kg/day
  NOAEL: 5330 mg/kg/day
Mouse [3]; systemic / in life observation / clinical signs / abnormal gait + systemic / in life observation / clinical signs / emaciation + systemic / …
  NEL: 5330 mg/kg/day
Rat [4]; systemic / in life observation / body weight / body weight + systemic / in life observation / body weight / body weight gain
  LOAEL: 11100 mg/kg/day
Rat [4]; systemic / in life observation / body weight / body weight + systemic / in life observation / body weight / body weight gain + systemic / in…
  NOAEL: 5420 mg/kg/day
Rat [4]; systemic / organ weight / liver / absolute + systemic / organ weight / liver / relative to body weight
  LEL: 2650 mg/kg/day
Rat [4]; systemic / organ weight / liver / absolute + systemic / organ weight / liver / relative to body weight + systemic / in life observation / …
  NEL: 1450 mg/kg/day
Rat [5]; [17]
  LEL: 425 mg/kg/day
  NEL: < 425 mg/kg/day
Rat [5]; [18]
  LOAEL: 8950 mg/kg/day
  NOAEL: 3340 mg/kg/day
Mouse [6]; [19]
  LEL: 14700 mg/kg/day
  LOAEL: > 14700 mg/kg/day
  NEL: 7430 mg/kg/day
  NOAEL: ≥ 14700 mg/kg/day
Mouse [6]; [20]
  LOAEL: > 11000 mg/kg/day
  NOAEL: ≥ 11000 mg/kg/day
Mouse [6]; [21]
  LEL: 715 mg/kg/day
  NEL: < 715 mg/kg/day
Mouse [7]
  LEL: 1950 mg/kg/day
  LOAEL: 1950 mg/kg/day
  NEL: 1040 mg/kg/day
  NOAEL: 1040 mg/kg/day

## c1ccc2c(c1)Oc1ccccc1[As]2O[As]1c2ccccc2Oc2ccccc21 [10,10'-Oxybisphenoxarsine]
Rat [8]; [22]
  LOAEL: > 30 mg/kg/day
  NOAEL: ≥ 30 mg/kg/day
Rat [8]; [23]
  LEL: 0.3 mg/kg/day
  NEL: < 0.3 mg/kg/day

## O=C([O-])CNCO.[Na+] [Glycine, N-(hydroxymethyl)-, monosodium salt]
Rat [9]; [24]
  LOAEL: 640 mg/kg/day
  NOAEL: 160 mg/kg/day
Rat [9]; [25]
  LEL: 40 mg/kg/day
  NEL: < 40 mg/kg/day

## Cc1cc(O)cc(C)c1Cl [4-Chloro-3,5-dimethylphenol]
Mouse [10]; [26]
  LOAEL: 213 mg/kg/day
  NOAEL: < 213 mg/kg/day
Mouse [10]; [27]
  LEL: 213 mg/kg/day
  NEL: < 213 mg/kg/day
Rat [11]; systemic / in life observation / body weight / body weight gain + systemic / in life observation / clinical signs / salivation + systemic / …
  LEL: 1250 mg/kg/day
Rat [11]; systemic / in life observation / clinical signs / salivation
  NEL: 25 mg/kg/day
Rat [11]; [28]
  LOAEL: 2500 mg/kg/day
  NOAEL: 1250 mg/kg/day

## CC(=O)CCc1ccc(O)cc1 [4-(4-Hydroxyphenyl)butan-2-one]
Rat [12]; [29]
  LOAEL: > 678 mg/kg/day
  NOAEL: ≥ 678 mg/kg/day
Rat [12]; [30]
  LEL: 65 mg/kg/day
  NEL: < 65 mg/kg/day
